In the assay the test system is cough receptor. Briefly: Cough receptor sensitivity test (nebulizer inhalation, C5). It counts as in vivo, human. The settings on record: seventeen healthy adults, inhaled by nebulizer for 15 seconds at intervals of one minute, 0.49 to 1,000 μM. Here is the method: In the following Examples, 1 mL of an emulsifier (Tween 80) and 1 mL of 99.7% ethanol were added to 70 μL of the resultant extracted oil immediately before use, and the mixture was diluted with physiological saline (Otsuka) in Example 1 or with distilled water in Example 2, to thereby prepare solutions containing different concentrations of capsinoid. In the same way as above, 1 mL of an emulsifier (Tween 80) and 1 mL of 99.7% ethanol were added to 30.5 mg of capsaicin (manufactured by Sigma-Aldrich) immediately before use, and the mixture was diluted with physiological saline (Otsuka) in Example 1 or with distilled water in Example 2, to thereby prepare solutions containing different concentrations of capsaicin.
Seventeen healthy adults (mean age 36±2.6) inhaled the capsaicin solution prepared in Production Example (0.49 to 1,000 μM) by a nebulizer for 15 seconds at intervals of one minute, and the concentrations for causing five or more coughs by one aspiration (C5) were determined.
At a later date, the same test was performed for the same test subjects using the capsinoid solutions (0.49 to 1,000 μM) to determine C5, followed by comparison between C5 of the capsaicin solution and C5 of the capsinoid solution.

Take `COc1cc(CNC(=O)CCCC/C=C/C(C)C)ccc1O` [capsaicin solution, capsaicin]: the “C5 (concentration for causing five or more coughs by one aspiration)” value was 2.02 µM.

The values above are taken from US9420817B2, “Agent for amelioration of dysphagia, and pharmaceutical or food composition comprising the same” (AJINOMOTO CO., INC., priority 2006, dated 2016).
